CC[C@H](C)[C@H](NC(=O)[C@H](Cc1ccc(O)cc1)NC(=O)[C@H](CC(=O)O)NC(=O)[C@H](CCCCN)NC(=O)[C@H](CO)NC(=O)[C@H](CCC(N)=O)NC(=O)[C@H](CCC(N)=O)NC(=O)[C@H](CC(C)C)NC(=O)[C@H](CO)NC(=O)[C@H](CCC(N)=O)NC(=O)[C@H](CC(N)=O)NC(=O)[C@H](CCSC)NC(=O)[C@H](CO)NC(=O)[C@H](CO)NC(=O)[C@@H](NC(=O)[C@H](CCC(N)=O)NC(=O)[C@H](CO)NC(=O)[C@H](CO)NC(=O)[C@@H](NC(=O)[C@H](CC(=O)O)NC(=O)[C@@H](NC(=O)[C@H](CCCCN)NC(=O)CCOCCOCCOCCOCCOCCOCCOCCOCCOCCOCCOCCOCCNC(C)=O)C(C)C)[C@@H](C)CC)[C@@H](C)CC)C(=O)N[C@@H](CCCCN)C(=O)N[C@@H](CCC(=O)O)C(=O)N[C@@H](C)C(=O)N[C@@H](CCC(N)=O)C(=O)N[C@@H](CCCNC(=N)N)C(=O)N[C@@H](CC(C)C)C(=O)N[C@@H](CC(C)C)C(=O)N[C@@H](CC(=O)O)C(=O)N[C@H](C(=O)N[C@H](C(=O)N[C@@H](CC(N)=O)C(=O)N1CCC[C@H]1C(=O)N[C@@H](CO)C(=O)N[C@@H](CC(C)C)C(N)=O)C(C)C)[C@@H](C)O [N-PEG NiV FC2]
number of syncytia per cell monolayer (in words) (live NiV): largely unchanged | syncytial morphology and size (in words) (live NiV): dramatic and robust reduction in syncytial size | number of syncytia per cell monolayer (in words) (live HeV): largely unchanged | syncytial morphology and size (in words) (live HeV): dramatic and robust reduction in syncytial size
